The record followed here is patent publication US9708314B2, “Heterocyclic amide compound” (NISSAN CHEMICAL INDUSTRIES, LTD., priority 2013, dated 2017).

Data set [1] has as its system Echinochloa oryzacola Vasing. Description: Test Example 1: herbicidal activity, application before weed generation in submerged conditions. Type of data set: in vivo. The conditions noted are these: Application herbicide amount 320 g/ha; Seventeenth Table. The method, boiled down:
(§1)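 Rating, on a six-step scale from almost no effect (0) to almost completely withered (5), was made three weeks after pre-emergence treatment. Treatment was surface application to flooded pots at g/ha rates, with plants kept at 25° C. to 30° C.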

For data set [2], the system named is Monochoria vaginalis. The data set is described as above. It counts as in vivo. The conditions noted are these: Application herbicide amount 320 g/ha; Seventeenth Table. The method, boiled down:
as §1

In data set [3] the test system is Scirpus juncoides. The description is as above. Type of data set: in vivo. The conditions noted are these: Application herbicide amount 320 g/ha; Seventeenth Table. Summed up: as §1
The test system of data set [4] is transplanted Oryza sativa. The data set can be described thus: Test Example 1: effect on crop, application before weed generation in submerged conditions. Type of data set: in vivo. The conditions noted are these: Application herbicide amount 320 g/ha; Seventeenth Table. Summed up: as §1
For data set [5], the system named is Echinochloa oryzacola Vasing. Description: Test Example 2: herbicidal activity, application during weed generation in submerged conditions. It counts as in vivo. To be noted: Eighteenth Table; application herbicide amount 320 g/ha. The method, boiled down:
(§2)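 Post-emergence application under submerged conditions: water-diluted emulsion dosed onto the water surface (g/ha) when weeds reach one- to two-leaf stage. Soil flooded to 4 cm; greenhouse 25–30 °C. Herbicidal ratio graded in six classes, 0 (≤5%) to 5 (≥90%), at three weeks.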

Data set [6] has as its system Monochoria vaginalis. Described as above. It counts as in vivo. To be noted: Eighteenth Table; application herbicide amount 320 g/ha. The method, boiled down:
as §2

Data set [7] concerns Scirpus juncoides. The description is as above. The conditions noted are these: Eighteenth Table; application herbicide amount 320 g/ha. It counts as in vivo. Summed up: as §2
In data set [8] the test system is directly sowed Oryza sativa. Description: Test Example 3: effect on crop by application to foliage (Wagner pot, water depth 0.1-0.5 cm). It counts as in vivo. The conditions noted are these: Nineteenth Table; application to foliage; application herbicide amount 320 g/ha. Summed up: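 Wagner pot foliar test: sow, grow 14 d (25–30 °C), spray diluted emulsion at set g/ha, score after 3 wk; 0 ≤5%, 5 ≥90% herbicidal ratio.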

The term melting point denotes the temperature, or range, at which the solid turns liquid.

The compound `CC(C)c1nnc2c(C(=S)Nc3nnnn3C)ccc(C(F)(F)F)n12` [2-039, 3-Isopropyl-N-(1-methyl-1H-tetrazol-5-yl)-5-(trifluoromethyl)-[1,2,4]triazolo[4,3-a]pyridine-8-carbothioamide] displayed a melting point of 198 to 200 °C. For the same compound, the “A: Echinochloa oryzicola Vasing. (herbicidal effect grade)” value in [1] is 5 (Herbicidal ratio of 90% or more (almost completely withered)). In the data set on Monochoria vaginalis [2], the “C: Monochoria vaginalis (herbicidal effect grade)” value is reported as 5 (Herbicidal ratio of 90% or more (almost completely withered)). Further, in the data set with Scirpus juncoides [3], the “B: Scirpus juncoides (herbicidal effect grade)” value was 5 (Herbicidal ratio of 90% or more (almost completely withered)). In [4], the “a: transplanted Oryza sativa (effect on crop grade)” value was 4 (Herbicidal ratio of 70% or more and less than 90%). Moreover, in data set [5], the “A (Echinochloa oryzicola Vasing.) herbicidal ratio grade” value is 5 (Herbicidal ratio of 90% or more (almost completely withered)). Further, the “C (Monochoria vaginalis) herbicidal ratio grade” value with Monochoria vaginalis [6] was 5 (Herbicidal ratio of 90% or more (almost completely withered)). In the data set on Scirpus juncoides [7], the “B (Scirpus juncoides) herbicidal ratio grade” value is given as 5 (Herbicidal ratio of 90% or more (almost completely withered)). In addition, the “b (effect on crop grade)” value in data set [8] was 4 (Herbicidal ratio of 70% or more and less than 90%).
